Results as given in patent publication US20200316038A1, “METHODS AND COMPOSITIONS FOR TREATING UREA CYCLE DISORDERS, IN PARTICULAR OTC DEFICIENCY” (CAMP4 THERAPEUTICS CORPORATION, priority 2017, published 2020).
Structures can show the parent of a compound that is named as a salt. Where two headings read alike, the source gives them in different places.

Assays:
[1] = system: OTC; assay: OTC expression modulated by compounds (OTC/Geo Mean of HKs, DMSO = 1); format: cell-based, human; conditions: OTC expression
Description: Analysis of the fold changes in expression as measured by qRT-PCR were performed using the technique below. The control was DMSO, and the treatment was the selected compound (CPD). The internal control was GAPDH or B-Actin, and the gene of interest is the target. First, the averages of the 4 conditions were calculated for normalization: DMSO:GAPDH, DMSO:Target, CPD: GAPDH, and CPD:Target. Next, the ΔCT of both control and treatment were calculated to normalize to internal control (GAPDH) using (DMSO:Target)−(DMSO:GAPDH)=ΔCT control and (CPD:Target)−(CPD: GAPDH)=ΔCT experimental. Then, the ΔΔCT was calculated by ΔCT experimental−ΔCT control.

[2] = system: CPS1; assay: RNA-seq, CPS1 expression in compound-treated primary human hepatocytes; format: cell-based
[3] = system: NAGS
[4] = system: multiple urea cycle-related genes; assay: RNA-seq, compounds that modulate multiple urea cycle-related genes; format: cell-based; conditions: primary human hepatocytes; for Up-regulated Genes: urea cycle-related genes significantly increased by the compound
[5] = system: ARG1; assay: RNA-seq, ARG1 expression in compound-treated primary human hepatocytes; format: cell-based; conditions: RNA-seq, primary human hepatocytes, compounds that significantly increase ARG1 expression
[6] = system: OTC; assay: RNA-seq, OTC expression in compound-treated primary human hepatocytes; format: cell-based
[7] = compound at 10 uM final concentration
[8] = RNA-seq, primary human hepatocytes, compounds that significantly increase NAGS expression

C=CCNC1=C2C[C@@H](C)C[C@H](OC)[C@H](O)[C@@H](C)/C=C(\C)[C@H](OC(N)=O)[C@@H](OC)/C=C\C=C(/C)C(=O)NC(=CC1=O)C2=O [17-AAG (Tanespimycin), Tanespimycin]
Max Value (OTC/Geo Mean of HKs; DMSO = 1) [1, 7]: 1.69

N#CC(c1ccnc(OCc2ccc(CN3CCOCC3)cc2)n1)c1nc2ccccc2s1 (stereo not drawn) [AS602801 (Bentamapimod), Bentamapimod]
Max Value (OTC/Geo Mean of HKs; DMSO = 1) [1, 7]: 2.75

Cc1cc(Nc2nc(N[C@@H](C)c3ncc(F)cn3)ncc2Cl)[nH]n1 [AZD1480]
Max Value (OTC/Geo Mean of HKs; DMSO = 1) [1, 7]: 1.46

Cc1ccc(-n2nc(C(C)(C)C)cc2NC(=O)Nc2ccc(OCCN3CCOCC3)c3ccccc23)cc1 [BIRB 796, Doramapimod]
Max Value (OTC/Geo Mean of HKs; DMSO = 1) [1, 7]: 2.61

O=C(NCCCNc1nc(Nc2cccc(NC(=O)N3CCCC3)c2)ncc1I)c1cccs1 [BX795]
Max Value (OTC/Geo Mean of HKs; DMSO = 1) [1, 7]: 2.57

CC1(C)CC[C@]2(C(=O)O)CC[C@]3(C)[C@H](C(=O)C=C4[C@@]5(C)C=C(C#N)C(=O)C(C)(C)[C@@H]5CC[C@]43C)[C@@H]2C1 [Bardoxolone]
Max Value (OTC/Geo Mean of HKs; DMSO = 1) [1, 7]: 2.76

CCS(=O)(=O)N1CC(CC#N)(n2cc(-c3ncnc4[nH]ccc34)cn2)C1 [Baricitinib]
Max Value (OTC/Geo Mean of HKs; DMSO = 1) [1, 7]: 1.66

N#CC(C#N)=NNc1cccc(Cl)c1 [CCCP]
Max Value (OTC/Geo Mean of HKs; DMSO = 1) [1, 7]: 4.06

C=CC(=O)Nc1cccc(Nc2nc(Nc3ccc(N4CCN(C(C)=O)CC4)cc3OC)ncc2C(F)(F)F)c1 [CO-1686 (Rociletinib), Rociletinib]
Fold change (Log 2) vs untreated [2]: 0.89 Log 2 | NAGS expression, Fold change (Log 2) vs untreated [3]: 1.05 Log 2

C=C1/C(=C\C=C2/CCC[C@]3(C)[C@@H]([C@H](C)CCCC(C)(C)O)CC[C@@H]23)C[C@@H](O)C[C@@H]1O [Calcitriol]
NAGS expression, Fold change (Log 2) vs untreated [3, 8]: 1.2 Log 2

CC1(COc2ccc3c(c2)ncn3-c2ccc3cccc(N4CCC(N)CC4)c3n2)COC1 [Crenolanib]
Max Value (OTC/Geo Mean of HKs; DMSO = 1) [1, 7]: 2.79 | number of urea cycle genes whose expression was significantly up-regulated [4]: four | Up-regulated Genes [4]: ASS1, ASL, OTC, ARG1

c1cc(-c2cnn3cc(-c4ccc(OCCN5CCCCC5)cc4)cnc23)ccn1 [Dorsomorphin]
Max Value (OTC/Geo Mean of HKs; DMSO = 1) [1, 7]: 4.78

O=C(N[C@H]1CN2CCC1CC2)c1cc2cccc(Cl)c2s1 [EVP-6124 (hydrochloride) (encenicline), encenicline]
NAGS expression, Fold change (Log 2) vs untreated [3, 8]: 0.75 Log 2

CS[C@H]1SC[C@H]2C(=O)N(C)[C@@H](C(C)C)C(=O)OC[C@@H](NC(=O)c3cnc4ccccc4n3)C(=O)N[C@@H](C)C(=O)N(C)[C@@H]1C(=O)N(C)[C@@H](C(C)C)C(=O)OC[C@@H](NC(=O)c1cnc3ccccc3n1)C(=O)N[C@@H](C)C(=O)N2C [Echinomycin]
number of urea cycle genes whose expression was significantly up-regulated [4]: six

CCn1c(=O)c(-c2ccc(-c3cncs3)cc2Cl)cc2cnc(Nc3ccc(N4CCN(C)CC4)cc3)nc21 [FRAX597]
number of urea cycle genes whose expression was significantly up-regulated [4]: five

COc1cc2c(Oc3ccc(NC(=O)C4(C(=O)Nc5ccc(F)cc5)CC4)cc3F)ccnc2cc1OCCCN1CCOCC1 [Foretinib (GSK1363089), Foretinib]
Max Value (OTC/Geo Mean of HKs; DMSO = 1) [1, 7]: 4.09

O=C(Nc1nc2cccc(-c3ccc(CN4CCS(=O)(=O)CC4)cc3)n2n1)C1CC1 [GLPG0634]
Max Value (OTC/Geo Mean of HKs; DMSO = 1) [1, 7]: 1.54

Cc1cc(Nc2cc(CN3CCOCC3)c3nc(C)c(Cc4ccc(Cl)cc4F)n3n2)n[nH]1 [LY2784544]
Max Value (OTC/Geo Mean of HKs; DMSO = 1) [1, 7]: 2.78

Cc1ccc(F)c(NC(=O)Nc2ccc(-c3cccc4[nH]nc(N)c34)cc2)c1 [Linifanib (ABT-869), Linifanib]
Max Value (OTC/Geo Mean of HKs; DMSO = 1) [1, 7]: 2.87

O=C(NCCCNc1nc(Nc2cccc(CN3CCOCC3)c2)ncc1C1CC1)C1CCC1 [MRT67307]
Max Value (OTC/Geo Mean of HKs; DMSO = 1) [1, 7]: 1.68

N#CCNC(=O)c1ccc(-c2ccnc(Nc3ccc(N4CCOCC4)cc3)n2)cc1 [Momelotinib]
Max Value (OTC/Geo Mean of HKs; DMSO = 1) [1, 7]: 3.52 | number of urea cycle genes whose expression was significantly up-regulated [4]: three | Up-regulated Genes [4]: CPS1, OTC, ARG1

CN(c1ncccc1CNc1nc(Nc2ccc3c(c2)CC(=O)N3)ncc1C(F)(F)F)S(C)(=O)=O [PF-00562271]
Max Value (OTC/Geo Mean of HKs; DMSO = 1) [1, 7]: 3.3

CC1(C)CC(=O)c2c(C(F)(F)F)nn(-c3ccc(C(N)=O)c(N[C@H]4CC[C@H](OC(=O)CN)CC4)c3)c2C1 [PF-04929113 (SNX-5422)]
Max Value (OTC/Geo Mean of HKs; DMSO = 1) [1, 7]: 1.73

CNC(=O)c1ccc(C)c(-n2c(C)cc(OCc3ccc(F)cc3F)c(Br)c2=O)c1 [PH-797804]
Max Value (OTC/Geo Mean of HKs; DMSO = 1) [1, 7]: 1.53

C1=C/COCc2cc(ccc2OCCN2CCCC2)Nc2nccc(n2)-c2cccc(c2)COC/1 [Pacritinib (SB1518), Pacritinib]
number of urea cycle genes whose expression was significantly up-regulated [4]: five | Up-regulated Genes [4]: CPS1, ASS1, ASL, OTC, ARG1

Cn1c(=O)c(Oc2ccc(F)cc2F)cc2cnc(NC(CCO)CCO)nc21 [Pamapimod]
Max Value (OTC/Geo Mean of HKs; DMSO = 1) [1, 7]: 1.73

Cc1ccc(Nc2nccc(N(C)c3ccc4c(C)n(C)nc4c3)n2)cc1S(N)(=O)=O [Pazopanib]
Max Value (OTC/Geo Mean of HKs; DMSO = 1) [1, 7]: 1.48

[H]/N=C(/N)N/C(=N/[H])NCCc1ccccc1 [Phenformin]
NAGS expression, Fold change (Log 2) vs untreated [3]: 1.38 Log 2 | ARG1 expression, Fold change (Log 2) vs untreated [5]: 1.14 Log 2

CCCC(=O)O[C@@H]1[C@@H](C)[C@@]2(O)[C@@H](C=C(CO)C[C@]3(O)C(=O)C(C)=C[C@@H]23)[C@@H]2C(C)(C)[C@]12OC(=O)CCC [Phorbol 12,13-dibutyrate]
NAGS expression, Fold change (Log 2) vs untreated [3, 8]: 0.62 Log 2

NS(=O)(=O)C#Cc1ccccc1 [Pifithrin-u]
ARG1 expression, Fold change (Log 2) vs untreated [5]: 1.87 Log 2

NS(=O)(=O)C#Cc1ccccc1 [Pifithrin-μ]
Fold change (Log 2) vs untreated [6]: 0.79 Log 2 | NAGS expression, Fold change (Log 2) vs untreated [3, 8]: 1.18 Log 2 | number of urea cycle genes whose expression was significantly up-regulated [4]: three | Up-regulated Genes [4]: OTC, NAGS, ARG1

N[C@@]1(C(=O)O)CS(=O)(=O)[C@H]2[C@H](C(=O)O)[C@H]21 [Pomaglumetad]
Max Value (OTC/Geo Mean of HKs; DMSO = 1) [1, 7]: 1.49

COc1cc(Nc2ncc(F)c(Nc3ccc4c(n3)N(COP(=O)(O)O)C(=O)C(C)(C)O4)n2)cc(OC)c1OC [R788 (fostamatinib disodium hexahydrate), fostamatinib disodium hexahydrate]
number of urea cycle genes whose expression was significantly up-regulated [4]: three | Up-regulated Genes [4]: CPS1, ARG1, SLC25A15

Cl.Cn1c(=O)c(Oc2ccc(F)cc2F)cc2cnc(NC3CCOCC3)nc21 [R1487 Hydrochloride]
Max Value (OTC/Geo Mean of HKs; DMSO = 1) [1, 7]: 1.64

CNC(=O)c1cc(Oc2ccc(NC(=O)Nc3ccc(Cl)c(C(F)(F)F)c3)c(F)c2)ccn1 [Regorafenib]
Max Value (OTC/Geo Mean of HKs; DMSO = 1) [1, 7]: 1.54 | Max Value (OTC/Geo Mean of HKs; DMSO = 1) ([1]; compound at 10 uM final concentration, listed as Regorafenib (BAY 73-4506)): 2.07

C=CCNc1c(O)cc2c(O)c1C[C@@H](C)C[C@H](OC)[C@H](O)[C@@H](C)/C=C(\C)[C@H](OC(N)=O)[C@@H](OC)/C=C\C=C(/C)C(=O)N2 [Retaspimycin Hydrochloride]
Max Value (OTC/Geo Mean of HKs; DMSO = 1) ([1]; compound tested at 1 uM): 1.48

COc1cc2c(cc1OC)CN(C(=O)/C=C/c1c(-c3ccccc3)n(C)c3ncccc13)CC2 [SIS3]
Max Value (OTC/Geo Mean of HKs; DMSO = 1) [1, 7]: 1.46 | NAGS expression, Fold change (Log 2) vs untreated [3]: 0.64 Log 2

O=C(NCCCn1ccnc1)c1cc(-c2ccco2)on1 [SKL2001]
NAGS expression, Fold change (Log 2) vs untreated [3]: 0.95 Log 2

CC(C)[C@H](O)C(=O)N[C@@H](C)C(=O)N[C@@H]1C(=O)N(C)CCc2ccccc21 [Semagacestat]
Max Value (OTC/Geo Mean of HKs; DMSO = 1) [1, 7]: 1.5

Cc1cc(C)c(/C=C2\C(=O)Nc3ccccc32)[nH]1 [Semaxanib]
NAGS expression, Fold change (Log 2) vs untreated [3, 8]: 2 Log 2

CCN(CC)CCNC(=O)c1c(C)[nH]c(/C=C2\C(=O)Nc3ccc(F)cc32)c1C [Sunitinib]
Max Value (OTC/Geo Mean of HKs; DMSO = 1) [1, 7]: 2.62

CCS(=O)(=O)c1cccc(-c2cc(C(=O)NC3CCN(C)CC3)c(C)c3[nH]c4ncc(C)cc4c23)c1 [TAK-901]
Max Value (OTC/Geo Mean of HKs; DMSO = 1) [1, 7]: 2.9

CN1CCN(CCCN2c3ccccc3Sc3ccc(C(F)(F)F)cc32)CC1 [TFP, Trifluoperazine]
NAGS expression, Fold change (Log 2) vs untreated [3, 8]: 0.58 Log 2

COc1cc2nccc(Oc3ccc(NC(=O)Nc4cc(C)on4)c(Cl)c3)c2cc1OC [Tivozanib]
Max Value (OTC/Geo Mean of HKs; DMSO = 1) [1, 7]: 1.57

C[C@@H]1CCN(C(=O)CC#N)C[C@@H]1N(C)c1ncnc2[nH]ccc12 [Tofacitinib citrate]
Max Value (OTC/Geo Mean of HKs; DMSO = 1) [1, 7]: 1.6

CC(C)c1cc(CNc2nc(Nc3cc(C4CC4)[nH]n3)cc(N3CCN(C)CC3)n2)on1 [XL228]
Max Value (OTC/Geo Mean of HKs; DMSO = 1) [1, 7]: 2.92

COCCn1c2c([n+](Cc3cnccn3)c1C)C(=O)c1ccccc1C2=O [YM155 (Sepantronium Bromide), Sepantronium Bromide]
Max Value (OTC/Geo Mean of HKs; DMSO = 1) [1, 7]: 3.16

C[C@]12C=CC(=O)C=C1CC[C@@H]1[C@@H]2C(=O)C[C@@]2(C)[C@H]1CC[C@]2(O)C(=O)CO [prednisone]
Fold change (Log 2) vs untreated [2]: 2.17 Log 2 | NAGS expression, Fold change (Log 2) vs untreated [3, 8]: 1 Log 2 | ARG1 expression, Fold change (Log 2) vs untreated [5]: 1.59 Log 2 | number of urea cycle genes whose expression was significantly up-regulated [4]: three | Up-regulated Genes [4]: CPS1, NAGS, ARG1

EGF: Epidermal Growth Factor; Pan-ErbB activator
Fold change (Log 2) vs untreated [6]: 0.64 Log 2 | Fold change (Log 2) vs untreated [2]: 1.93 Log 2 | ARG1 expression, Fold change (Log 2) vs untreated [5]: 1.46 Log 2 | number of urea cycle genes whose expression was significantly up-regulated [4]: three | Up-regulated Genes [4]: CPS1, OTC, ARG1

B1: GDF10 (BMP3b): member of the BMP family and the TGF-B superfamily (protein, UniProt P55107 369-478, looked up)
Growth/differentiation factor …: QWDEPRVCSRRYLKVDFADIGWNEWIISPKSFDAYYCAGACEFPMPKIVRPSNHATIQSIVRAVGIIPGIPEPCCVPDKMNSLGVLFLDENRNVVLKVYPNMSVDTCACR
Fold change (Log 2) vs untreated [2]: 1.66 Log 2 | ARG1 expression, Fold change (Log 2) vs untreated [5]: 0.97 Log 2
